The values below come from patent US20030065001A1, “Fungicidal combinations comprising quinazolinone” (priority 1997, published 2003).

The experiment concerns Erysiphe graminis f.sp. tritici. In words: Efficacy against Erysiphe graminis f.sp. tritici on wheat (Example B-1). It is filed as in vivo. The following applies: single active ingredient. The text has this: A synergistic effect exists whenever the action of an active ingredient combination is greater than the sum of the actions of the individual components. The action to be expected E for a given active ingredient combination obeys the so-called COLBY formula and can be calculated as follows (COLBY, S.R. “Calculating synergistic and antagonistic responses of herbicide combination”. Weeds, Vol. 15, pages 20-22; 1967):
ppm=milligrams of active ingredient (=a.i.) per litre of spray mixture
X=% action by active ingredient I using p ppm of active ingredient
Y=% action by active ingredient II using q ppm of active ingredient.
According to Colby, the expected (additive) action of active ingredients I+II using p+q ppm of [formula]
If the action actually observed (O) is greater than the expected action (E), then the action of the combination is superadditive, i.e. there is a synergistic effect.
Wheat plants c.v. “Arina”, about 10 days old, are sprayed with aqueous suspensions of the active ingredients or mixtures thereof. One day later, the plants are inoculated by dusting with spores of Erysiphe graminis. The tests may also be carried out with curative applications, i.e. application 1-3 days after artificial inoculation of the plants. The plants are incubated in the greenhouse or in climate chambers at 20° C., 70% relative humidity. 7 to 10 days after inoculation, fungal attack on primary leaves is assessed.
The efficacy of the rest combinations and the single active ingredients in the above tests is determined by comparing the degree of fungal attack with that on untreated, similarly inoculated check plants.

As for `Cc1cc(C2CC2)nc(Nc2ccccc2)n1` [Cyprodinil, cyprodinil], the “% activity observed” value (Table 2, 10 ppm) stood at 0% and the “% activity observed” value (Table 2, 25 ppm) is 15%. Take `N#Cc1c[nH]cc1-c1cccc2c1OC(F)(F)O2` [Fludioxonil, fludioxonil]: the “% activity observed” value (Table 1, 250 ppm) came out at 20%. `CON=C(C(=O)OC)c1ccccc1CON=C(C)c1cccc(C(F)(F)F)c1` [cmpd. V, methyl 2-{2-[4-(3-trifluoromethylphenyl)-3-aza-2-oxa-3-pentenyl]-phenyl}-2-methoxyimino-acetate]: where the note is “Blumeria graminis, Table 3, 0.25 ppm, read-out: % activity observed”, the inhibition at 0.25 ppm is 29%. Moreover, the inhibition at 0.5 ppm (Blumeria graminis, Table 3, 0.5 ppm, read-out: % activity observed) worked out at 54%.
